# Assay results taken from patent US20220175893A1, “COMBINATIONS OF TANNASE AND PROBIOTIC FORMULATIONS AND METHODS OF USE FOR IMPROVING TANNIN METABOLISM” (THE TEXAS A&M UNIVERSITY SYSTEM, priority 2019, published 2022).
# Like-named read-outs stand apart in the source and are kept apart here. Marks after values point to notes of the source that are not given here.
# Legend:
# rabbits [1] = settings: cited from earlier work
# rabbits [2] = test: Oral LD50 in rabbits (literature); format: in vivo, rabbit; settings: for equivalent dose of the LD50 for a human equivalent of 75 kg: for 10 days
# Experimental: For a human equivalent of 75 kg, the equivalent dose would be 210,000 and 255,000 mg/day for 10 days.
# [3] = target: T1, Tannase sourced from Aspergillus oryzae (Aspergillus oryzae, UniProt P78581); test: Tannase (10^−3 U/mL) hydrolysis of galloyl glycosides, LC-MS; format: biochemical
# T1 construct: purchased
# Experimental: Standards solutions of monogalloyl glucose, pentagalloyl glucose, and a gallotannin isolate were incubated with tannase at 10^−3 U/mL to characterize the by-products and relative rates of galloyl derivative hydrolysis. 250 μL of 200 ppm monogalloyl glucose or pentagalloyl glucose were incubated with 650 μL of buffer set to the enzyme's optimum conditions (pH 5.5, 0.1 M citric acid buffer, 30° C.), and 100 μL of tannase 10^−3 U/mL for final standard concentrations of 50 ppm. […] Experiments were performed in a static water bath and prepared in triplicate for each time point at 0, 0.016, 0.033, 0.050, 0.083, 0.167, 0.5, 1, 1.5, 2, 3, 4 h. To end enzymatic activity, solutions were immediately diluted with 1000 μL 0.1% formic acid MeOH. Lastly, samples were filtered with a 0.45 μm syringe filter prior to LC-MS analysis.
# Galloyl derivatives were characterized and quantified by use of LC-MS on a Thermo Finnigan HPLC. Separations were in reversed-phase using a Finnigan Surveyor HPLC coupled to a Surveyor PDA detector and gradient separations were performed using a Phenomenex Kinetex™ (Bannockburn, II) C18 column, (150×4.6 mm, 2.6 μm) at room temperature. Injections were made into the column by use of a 50 μL sample loop. […] A gradient was run of 0% Phase B for 2 min and changed to 10% Phase B in 4 min, 10% Phase B was held to 10 min, 10 to 40% Phase B in 25 min, and 40% to 65% Phase B in 35 min, 65% to 85% Phase B in 41 min, 85% was held to 49 min before returning to initial conditions. The electrospray interface worked in negative ionization mode. Source and capillary temperatures were set at 325° C., source voltage was 4.0 kV, capillary voltage was set at −47 V, and collision energy for MS/MS analysis was set at 35 eV. The instrument operated with sheath gas and auxiliary gas (N2) flow rates set at 10 units/min and 5 units/min, respectively. The instrument was tuned specifically for pentagalloyl glucose. […] Digalloyl glucoses, and trigalloyl glucoses were quantified at 280 nm and reported as equivalents of monogalloyl glucose. Tetragalloyl glucose and higher were quantified and reported as pentagalloyl glucose equivalents.
# Tannase sourced from Aspergillus oryzae was incubated with standard solutions of monogalloyl glucose, pentagalloyl glucose, and a gallotannin isolate sourced from mango in an effort to characterize and quantify the intermediates formed during hydrolysis. […] Characterization of the different galloyl derivatives that can be formed during tannase hydrolysis is critical as they are likely to have different bio efficacies.
# 3T3-L1 adipocytes = settings: cited from earlier work
# tannase = target: T2, tannase (Aspergillus oryzae, UniProt P78581); test: Tannase (20 U/mL) hydrolysis to free gallic acid, rhodanine assay; format: biochemical
# T2 construct: purchased
# T2 sequence (P78581 19-588): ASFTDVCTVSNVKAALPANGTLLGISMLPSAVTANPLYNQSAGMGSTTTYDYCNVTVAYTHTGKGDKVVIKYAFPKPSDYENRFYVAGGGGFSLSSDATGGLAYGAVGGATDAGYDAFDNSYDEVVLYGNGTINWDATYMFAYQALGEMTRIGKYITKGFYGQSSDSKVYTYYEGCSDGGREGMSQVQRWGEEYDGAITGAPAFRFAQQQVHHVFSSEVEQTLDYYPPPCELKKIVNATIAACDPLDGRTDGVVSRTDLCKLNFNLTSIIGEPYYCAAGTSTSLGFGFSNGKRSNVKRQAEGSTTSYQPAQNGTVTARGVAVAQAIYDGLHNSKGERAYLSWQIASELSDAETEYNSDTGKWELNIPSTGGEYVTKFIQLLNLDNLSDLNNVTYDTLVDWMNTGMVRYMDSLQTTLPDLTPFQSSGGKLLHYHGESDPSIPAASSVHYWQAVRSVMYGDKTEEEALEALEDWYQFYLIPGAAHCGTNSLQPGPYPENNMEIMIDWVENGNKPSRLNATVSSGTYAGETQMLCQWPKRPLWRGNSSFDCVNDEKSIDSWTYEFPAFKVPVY
# Experimental: 200 uL of 641±16 and 2051±46 ppm GAE gallotannin isolate was aliquotted into test tubes and made up to 1 mL with 20 U/mL tannase hydrated in pH 5.5, 0.1 M citrate buffer. Samples were incubated for 0, 0.16 (10 min), 0.5, 1, 2, 4, 6, 12, and 24 h at 35° C. in a static water bath. After each time point had elapsed, 1 mL of 0.1% formic acid MeOH was added to each test tube. 50 and 100 ppm monogalloyl glucose was also treated with tannase under the same conditions. The total pro-gallic acid content of the gallotannin isolate and monogalloyl glucose were quantified by the colorimetric rhodanine assay modified from Inoue & Hagerman (1988). 600 μL of 0.667% rhodanine in methanol was added to 400 μL of hydrolyzed tannin fraction sample. After 10 min, 400 μL of 0.5 M NaOH was added to develop color for 20 min until bringing the final volume to 10 mL with deionized water. Absorbance was measured at 520 nm.
# [4] = Stability of gallic acid at pH 5.5 over 24 h; format: physicochemical
compound,measurement,setting,value
O=C(OC[C@H]1O[C@@H](OC(=O)c2cc(O)c(O)c(OC(=O)c3cc(O)c(O)c(O)c3)c2)[C@H](OC(=O)c2cc(O)c(O)c(OC(=O)c3cc(O)c(O)c(O)c3)c2)[C@@H](OC(=O)c2cc(O)c(O)c(OC(=O)c3cc(O)c(O)c(O)c3)c2)[C@@H]1OC(=O)c1cc(O)c(O)c(OC(=O)c2cc(O)c(O)c(O)c2)c1)c1cc(O)c(O)c(OC(=O)c2cc(O)c(O)c(O)c2)c1 [tannic acid],oral LD50,"rabbits [1]; rabbits, for 10 days",3400 mg/kg/day
same,equivalent dose of the LD50 for a human equivalent of 75 kg,rabbits [2],"255,000 mg/day"
same,margin of the highest selected study dose (566 mg/L) below the LD50 dose,rabbits [2]; human equivalent of 75 kg,451 fold
O=C(OC[C@H]1O[C@@H](OC(=O)c2cc(O)c(O)c(O)c2)[C@H](OC(=O)c2cc(O)c(O)c(O)c2)[C@@H](OC(=O)c2cc(O)c(O)c(O)c2)[C@@H]1OC(=O)c1cc(O)c(O)c(O)c1)c1cc(O)c(O)c(O)c1 [pentagalloyl glucose],total pro-gallic acid content generated (molar basis),[3]; 2 h incubation,45.5±0.53%
same,pentagalloyl glucose hydrolyzed,"[3]; 2 h incubation, pH 5.5, 30° C.",97.2±0.27%
"Oc1cccc(O)c1O [PG, pyrogallol]",adipogenesis and lipid accumulation,3T3-L1 adipocytes,inhibit adipogenesis and reduce lipid accumulation
same,thermogenesis,3T3-L1 adipocytes,promotes thermogenesis
monogalloyl glucose,time to reach the same amount of generated gallic acid as pentagalloyl glucose at 2 h,[3],4 h
same,total pro-gallic acid content generated (molar basis),[3]; 2 h incubation,28.9±0.26%
same,hydrolysis to free gallic acid,tannase; 1 h incubation with 20 U/mL of tannase,completely hydrolyzed to free gallic acid
same,Free gallic acid from hydrolysis with 20 U/mL of tannase,"tannase; monogalloyl glucose 50 mg/L, pH 5.5, 0 h",1.26 ± 0.13 ^a mg/L
same,Free gallic acid from hydrolysis with 20 U/mL of tannase,"tannase; monogalloyl glucose 50 mg/L, pH 5.5, 1 h",19.9 ± 0.13 ^b mg/L
same,Free gallic acid from hydrolysis with 20 U/mL of tannase,"tannase; monogalloyl glucose 50 mg/L, pH 5.5, 2 h",20.2 ± 0.88 ^b mg/L
same,Free gallic acid from hydrolysis with 20 U/mL of tannase,"tannase; monogalloyl glucose 50 mg/L, pH 5.5, 12 h",20.1 ± 0.25 ^b mg/L
same,Free gallic acid from hydrolysis with 20 U/mL of tannase,"tannase; monogalloyl glucose 50 mg/L, pH 5.5, 24 h",19.9 ± 0.87 ^b mg/L
same,Free gallic acid from hydrolysis with 20 U/mL of tannase,"tannase; monogalloyl glucose 100 mg/L, pH 5.5, 0 h",1.76 ± 0.25 ^a mg/L
same,Free gallic acid from hydrolysis with 20 U/mL of tannase,"tannase; monogalloyl glucose 100 mg/L, pH 5.5, 1 h",39.7 ± 0.50 ^b mg/L
same,Free gallic acid from hydrolysis with 20 U/mL of tannase,"tannase; monogalloyl glucose 100 mg/L, pH 5.5, 2 h",42.5 ± 1.01 ^b mg/L
same,Free gallic acid from hydrolysis with 20 U/mL of tannase,"tannase; monogalloyl glucose 100 mg/L, pH 5.5, 12 h",39.2 ± 1.89 ^b mg/L
same,Free gallic acid from hydrolysis with 20 U/mL of tannase,"tannase; monogalloyl glucose 100 mg/L, pH 5.5, 24 h",35.7 ± 3.14 ^b mg/L
"O=C(O)c1cc(O)c(O)c(O)c1 [Gallic Acid, gallic acid]",oral LD50,"rabbits [1]; rabbit, in vivo, po",2800 mg/kg/day
same,stability of gallic acid at the conditions of the method,"[4]; 50 and 100 ppm gallic acid in pH 5.5 buffer, after 24 h",did not show any indication of degradation
same,Gallic acid concentration (stability at pH 5.5),"[4]; gallic acid 50 mg/L, pH 5.5, 0 h",48.2 ± 1.28 ^a mg/L
same,Gallic acid concentration (stability at pH 5.5),"[4]; gallic acid 50 mg/L, pH 5.5, 1 h",50.4 ± 0.45 ^b mg/L
same,Gallic acid concentration (stability at pH 5.5),"[4]; gallic acid 50 mg/L, pH 5.5, 2 h",51.2 ± 0.62 ^b mg/L
same,Gallic acid concentration (stability at pH 5.5),"[4]; gallic acid 50 mg/L, pH 5.5, 12 h",47.2 ± 0.87 ^b mg/L
same,Gallic acid concentration (stability at pH 5.5),"[4]; gallic acid 50 mg/L, pH 5.5, 24 h",49.4 ± 0.37 ^b mg/L
same,Gallic acid concentration (stability at pH 5.5),"[4]; gallic acid 100 mg/L, pH 5.5, 0 h",107 ± 3.07 ^a mg/L
same,Gallic acid concentration (stability at pH 5.5),"[4]; gallic acid 100 mg/L, pH 5.5, 1 h",102 ± 2.43 ^b mg/L
same,Gallic acid concentration (stability at pH 5.5),"[4]; gallic acid 100 mg/L, pH 5.5, 2 h",111 ± 1.63 ^b mg/L
same,Gallic acid concentration (stability at pH 5.5),"[4]; gallic acid 100 mg/L, pH 5.5, 12 h",97.9 ± 1.38 ^b mg/L
same,Gallic acid concentration (stability at pH 5.5),"[4]; gallic acid 100 mg/L, pH 5.5, 24 h",108 ± 1.11 ^b mg/L
same,equivalent dose of the LD50 for a human equivalent of 75 kg,rabbits [2],"210,000 mg/day"
